Data: paper PMC2811219 (The Journal of infectious diseases, 2010)
Where two headings read alike, the source gives them in different places.

Key:
HIV-1LAI.04 [1] = test: Anti-HIV-1 activity in MT-4 cell cultures; assay type: cell-based; conditions: MT-4 cells; for EC50: read-out: EC50 (MT-4), effective concentration that inhibits 50% of HIV-1 replication
[2] = test system: human tonsillar tissue T cells; assay type: cell-based
CEM cells [3] = test: in vitro; assay type: cell-based, human
MT-4 cells [4] = test: Viability assay in MT-4 cell cultures; assay type: cell-based, human
MT-4 cells [5] = test: MT-4 cell growth / proliferation; assay type: cell-based, human; conditions: read-out: IC50 (MT-4), concentration that inhibit cell growth by 50%
CEM cells [6] = test: CEM cell growth; assay type: cell-based, human; conditions: read-out: IC50 (CEM), concentration that inhibit cell growth by 50%
HIV-1 = test: Anti-HIV-1 activity in CEM cell cultures; assay type: cell-based; conditions: for EC50: read-out: EC50 (CEM), effective concentration that inhibits 50% of HIV-1 replication, CEM cells
[7] = test system: clinical ACV-resistant HSV-2 isolate; test: ACV-resistant HSV-2 replication in human tonsillar tissue; assay type: cell-based; conditions: variant without functional thymidine kinase, n=2
HSV-2 (G) = test: HSV-2 replication in HIV-1/HSV-2 coinfected tonsillar tissue; assay type: cell-based; conditions: 1μM, n=5
HIV-1 NL4.3 (X4) = test: p24 production in virus-infected PBMC, HIV-1 NL4.3; assay type: cell-based; conditions: read-out: EC50, NL4.3
HIV-1BaL = test: HIV-1 replication in human cervicovaginal tissue ex vivo; assay type: cell-based
[8] = test system: HIV-1 UG 270, X4 (clade D); test: p24 production in virus-infected PBMC, HIV-1 UG 270; assay type: cell-based; conditions: read-out: EC50, UG 270
PBMC = PBMC MTS viability staining; assay type: cell-based, human
[9] = test system: HIV-1 ID12, R5 (clade A/E); test: p24 production in virus-infected PBMC, HIV-1 ID12; assay type: cell-based; conditions: read-out: EC50, ID12
HIV-1LAI.04 [10] = test: HIV-1 replication in HIV-1/HSV-2 coinfected tonsillar tissue; assay type: cell-based; conditions: 1μM, n=5
HIV-1 BaL (R5) = test: p24 production in virus-infected PBMC, HIV-1 BaL; assay type: cell-based; conditions: read-out: EC50, BaL
[11] = test system: HIV-1 UG275, R5 (clade A); test: p24 production in virus-infected PBMC, HIV-1 UG275; assay type: cell-based; conditions: read-out: EC50, UG275
HIV-1 US 3, R5 (clade B) = test: p24 production in virus-infected PBMC, HIV-1 US 3; assay type: cell-based; conditions: read-out: EC50, US 3
HSV-2 strain G = test: HSV-2 replication in human tonsillar tissue; assay type: cell-based; conditions: 1μM, day 12 post infection, n=4
[12] = test system: HIV-1 ETH 2220, R5 (clade C); test: p24 production in virus-infected PBMC, HIV-1 ETH 2220; assay type: cell-based; conditions: read-out: EC50, ETH 2220
HIV-2ROD = test: Anti-HIV-2 activity in CEM cells; assay type: cell-based; conditions: HIV-2ROD-infected CEM cells; data not shown
in vitro = assay type: cell-based, human; conditions: human
[13] = Viability assay in MT-4 cell cultures; assay type: cell-based, human; conditions: human, MT-4 cells
HIV-1LAI.04 [14] = test: HIV-1 replication in human tonsillar tissue ex vivo; assay type: cell-based
HIV-1LAI.04 [15] = test: Flow-cytometry of HIV-infected; assay type: cell-based; conditions: tonsillar tissue, day 12 post infection; control 11.71 ± 3.87%; n=4

Structure (SMILES)	SI, selective index or ratio of CC50 (MT-4)/EC50 (HIV-1LAI.04 [1])	EC50 (HIV-1LAI.04 [1])	CC50 (CEM cells [3])	CC50 (MT-4 cells [4])	IC50 (MT-4 cells [5])	IC50 (CEM cells [6])	EC50 (HIV-1)	EC50 (HIV-1 NL4.3 (X4))	EC50 [8]	EC50 [9]	EC50 (HIV-1 BaL (R5))	EC50 [11]	EC50 (HIV-1 US 3, R5 (clade B))	EC50 [12]	also measured
CC(C)OC(=O)[C@H](C)NP(=O)(OCCOCn1cnc2c(=O)[nH]c(N)nc21)Oc1cccc2ccccc12 (stereo partly shown) [Cf2681]	> 28	5.4 µM	> 150 µM	> 150 µM	73 µM	36 ± 15 µM	6.2 ± 5.4 µM	–	–	–	–	–	–	–	effect on numbers of CD4+ T cells and subsets in treated tissues [2]: did not affect the numbers of these cells
CCOC(=O)[C@H](C)NP(=O)(OCCOCn1cnc2c(=O)[nH]c(N)nc21)Oc1cccc2ccccc12 (stereo partly shown) [Cf2676]	> 88	1.7 ± 0.8 µM	> 150 µM	> 150 µM	12 ± 5.3 µM	32 ± 7.8 µM	12 ± 9.8 µM	–	–	–	–	–	–	–	–
C[C@H](NP(=O)(OCCOCn1cnc2c(=O)[nH]c(N)nc21)Oc1ccccc1)C(=O)OCc1ccccc1 (stereo partly shown) [Cf2648]	> 26	5.7 ± 1.6 µM	> 150 µM	–	34 ± 11 µM	33 ± 7.1 µM	6.4 ± 5.8 µM	13 ± 3.8 µM	55 ± 40 µM	16 ± 15 µM	6.6 ± 1.4 µM	25 ± 10 µM	28 ± 12 µM	19 ± 14 µM	inhibition of replication of ACV-resistant HSV-2 variant [7]: 94.9 ± 5.1%; inhibition of HSV-2 replication in HIV-1/HSV-2 coinfected lymphoid tissue (HSV-2 (G)): 99.6 ± 0.2%; inhibition of HIV-1 replication, drug removed on day 3 post-infection (HIV-1BaL; cervicovaginal tissue, 1μM, not replenished, n=4): 57.1 ± 16.0%; inhibition of HIV replication, drug replenished at each medium change (HIV-1BaL; cervicovaginal tissue, 1μM, treated overnight then infected with HIV-1BaL, n=2): 100%; inhibition of HIV replication on day 12 post-infection, 3-day incubation followed by drug removal (HIV-1BaL; cervicovaginal tissue, 5μM, n=3): 90.3 ± 9.2%; CC50 (PBMC; read-out: CC50, 50% cytostatic concentration, PBMC, MTS viability staining method): 319 µM; inhibition of HIV replication in HIV-1/HSV-2 coinfected lymphoid tissue (HIV-1LAI.04 [10]): 81.1 ± 5.9%; suppression of HSV-2 replication (HSV-2 strain G): 99.6 ± 0.3%
Nc1nc2c(ncn2COCCO)c(=O)[nH]1 [ACV, acyclovir, reference compound]	–	–	–	–	–	–	–	–	–	–	–	–	–	–	suppression of viral replication (HIV-2ROD): did not efficiently suppress viral replication; CC50 (in vitro): > 150 µM; CC50 [13]: > 150 µM; suppression of viral replication (HIV-1; HIV-1IIIB-infected CEM cells, data not shown): did not efficiently suppress viral replication
COC(=O)[C@H](C)NP(=O)(OCCOCn1cnc2c(=O)[nH]c(N)nc21)Oc1cccc2ccccc12 (stereo partly shown) [Cf2649]	> 32	4.7 ± 2.1 µM	> 150 µM	> 150 µM	19 ± 3.2 µM	57 ± 45 µM	–	11 ± 3.1 µM	10 ± 12 µM	53 ± 4.4 µM	5.2 ± 2.4 µM	16 ± 11 µM	4.9 ± 6.1 µM	6.8 ± 3.9 µM	suppression of HIV replication in tonsillar tissue (HIV-1LAI.04 [14]; 1 μM): completely suppresses HIV replication; inhibition of HIV-1 replication, treatment started 2 days post-infection (HIV-1LAI.04 [14]; tonsillar tissue, 1μM, n=3): 94.4 ± 5.5%; inhibition of HIV-1 replication, treatment started 4 days post-infection (HIV-1LAI.04 [14]; tonsillar tissue, 1μM, n=3): 90.2 ± 9.8%; inhibition of HIV-1 replication, treatment started 6 days post-infection (HIV-1LAI.04 [14]; tonsillar tissue, 1μM, n=3): 54.1 ± 13.5%; inhibition of HIV-1 replication, treatment started simultaneously with infection (HIV-1LAI.04 [14]; tonsillar tissue, 1μM, n=3): 96.9 ± 3%; suppression of HIV-1BAL replication in cervicovaginal tissue (HIV-1BaL; 1 μM for 12 days, relative to donor-matched infected tissues, n=4): 75.8 ± 10.4%; CC50 (PBMC): 352 µM; fraction of CD8- T cells HIV-infected (p24+) (HIV-1LAI.04 [15]): 3.16 ± 1.63%
